# Results reported in patent US7723331B2, “Thienopyrimidine compounds and uses thereof” (AstraZeneca AB, priority 2006, dated 2010).
# Key:
# [1] = biological target: T1, human melanin concentrating hormone receptor 1 (hMCHr1) (Homo sapiens, UniProt Q99705); assay: MCHr1 radioligand binding (125I-MCH displacement); details: membranes from CHO-K1 cells expressing hMCHr1, 125I-MCH
# T1 construct: purchased Euroscreen; host or cells: CHO-K1
# Method: Assays were performed on membranes prepared from CHO-K1 cells expressing the human melanin concentrating hormone receptor 1 (hMCHr1, […] protein; Euroscreen). Assays were performed in a 96-well plate format in a final reaction volume of […] per well. Each well contained 6 μg of membrane proteins diluted in binding buffer (50 mM Tris, 3 mM MgCl2, 0.05% bovine serum albumin and the radioligand ^125I-MCH (IM344 Amersham) was added to give 10 000 cpm (counts per minute) per well. Each well contained 2 μl of the appropriate concentration of competitive antagonist prepared in DMSO or in HOAc and left to stand at 30° C. for 60 minutes. Non-specific binding was determined as that remaining following incubation with 1 μM MCH (Melanin concentrating hormone, H-1482 Bachem). The reaction was terminated by transfer of the reaction to GF/A filters using a Micro96 Harvester (Skatron Instruments, Norway). Filters were washed with assay buffer. Radioligand retained on the filters was quantified using a 1450 Microbeta TRILUX (Wallac, Finland).
# Non-specific binding was subtracted from all values determined. Maximum binding was that determined in the absence of any competitor following subtraction of the value determined for non-specific binding. Binding of compounds at various concentrations was plotted according to the equation y=A+((B−A)/1+((C/x)^D))) and IC50 estimated where: […]
# hERG = hERG (Homo sapiens, UniProt Q12809); assay: hERG activity (planar-array-based voltage clamp); format: cell-based; details: modified method of Kiss et al.
# hERG, sequence (Q12809 whole entry): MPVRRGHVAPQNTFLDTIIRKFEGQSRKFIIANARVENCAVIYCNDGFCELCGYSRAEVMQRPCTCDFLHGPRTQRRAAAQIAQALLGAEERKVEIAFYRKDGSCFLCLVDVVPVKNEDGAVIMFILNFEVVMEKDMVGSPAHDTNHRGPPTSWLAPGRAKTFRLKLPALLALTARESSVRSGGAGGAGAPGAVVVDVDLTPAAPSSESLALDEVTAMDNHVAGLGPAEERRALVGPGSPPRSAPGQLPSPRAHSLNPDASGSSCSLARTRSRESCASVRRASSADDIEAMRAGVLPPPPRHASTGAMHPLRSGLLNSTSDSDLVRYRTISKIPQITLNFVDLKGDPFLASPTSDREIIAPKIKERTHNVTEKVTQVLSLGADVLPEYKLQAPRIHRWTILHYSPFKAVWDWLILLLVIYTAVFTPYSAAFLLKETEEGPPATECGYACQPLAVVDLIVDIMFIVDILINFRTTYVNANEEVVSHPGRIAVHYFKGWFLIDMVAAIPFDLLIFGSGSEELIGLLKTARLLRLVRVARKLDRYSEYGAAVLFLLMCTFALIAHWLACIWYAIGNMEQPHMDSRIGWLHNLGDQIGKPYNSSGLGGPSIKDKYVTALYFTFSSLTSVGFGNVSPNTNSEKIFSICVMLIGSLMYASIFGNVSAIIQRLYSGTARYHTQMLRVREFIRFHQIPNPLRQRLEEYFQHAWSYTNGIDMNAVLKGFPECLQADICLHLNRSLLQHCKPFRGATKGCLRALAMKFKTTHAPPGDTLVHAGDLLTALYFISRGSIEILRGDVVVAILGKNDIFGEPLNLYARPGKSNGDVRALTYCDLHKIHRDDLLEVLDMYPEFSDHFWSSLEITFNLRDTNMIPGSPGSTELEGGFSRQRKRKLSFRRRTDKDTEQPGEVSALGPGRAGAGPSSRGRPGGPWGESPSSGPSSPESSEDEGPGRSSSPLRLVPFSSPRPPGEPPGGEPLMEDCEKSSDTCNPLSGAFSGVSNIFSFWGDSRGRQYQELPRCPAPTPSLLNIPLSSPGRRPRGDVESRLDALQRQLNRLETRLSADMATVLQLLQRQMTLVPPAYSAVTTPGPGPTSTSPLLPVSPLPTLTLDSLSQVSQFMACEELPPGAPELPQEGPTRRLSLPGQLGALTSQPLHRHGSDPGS
# Method: hERG testing was performed using a modified version of the method described by Kiss et al., “High throughput ion-channel pharmacology: planar-array-based voltage clamp.” Assay Drug Dev Technol., 2003, 1, 127-35.
# recombinant hMCHr1 = biological target: T2, recombinant hMCHr1 (Homo sapiens, UniProt Q99705); assay: MCHr1 functional assay ([35S]GTPγS); format: biochemical; details: hMCHr1 membranes, ED80 concentration of MCH
# T2 construct: purchased Euroscreen
# T2 sequence (Q99705 whole entry): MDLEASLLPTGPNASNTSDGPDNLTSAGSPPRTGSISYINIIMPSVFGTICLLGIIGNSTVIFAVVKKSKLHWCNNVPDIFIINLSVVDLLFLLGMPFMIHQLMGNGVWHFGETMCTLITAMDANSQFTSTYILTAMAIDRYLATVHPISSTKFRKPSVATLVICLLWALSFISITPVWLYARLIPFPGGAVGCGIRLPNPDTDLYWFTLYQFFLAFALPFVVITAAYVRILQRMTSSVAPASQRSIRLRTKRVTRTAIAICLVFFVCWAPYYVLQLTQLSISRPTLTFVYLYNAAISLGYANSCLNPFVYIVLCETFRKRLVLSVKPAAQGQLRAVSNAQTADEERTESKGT
# Method: Membranes expressing recombinant hMCHr1 (5.45 pmol/mg protein; Euroscreen) were prepared in assay buffer (50 mM HEPES, 100 mM NaCl, 5 mM MgCl2, 1 mM EDTA, 200 μM DTT, 20 μM GDP (Sigma) containing 0.1 μg/ml BSA, pH7.4) before assay. The assays were performed using membranes at 6 μg/well in an assay volume of 200 μL and the appropriate concentrations of compounds prepared in DMSO or in HOAc. The reaction was started by addition of 0.056 nM [^35S]GTPγS (Specific activity >1000 Ci/mmol; Amersham) and an ED80 concentration of MCH (determined for each membrane and each MCH batch). Non-specific binding was determined using 20 μM non-radiolabelled GTPγS. Plates were incubated for 45 min at 30° C. Free and bound GTPγS were separated by filtration binding using GF/B filter mats presoaked in wash buffer (50 mM Tris, 5 mM MgCl2, 50 mM NaCl, pH 7.4) using a Micro96 cell harvester (Skatron Instruments) and the filters then dried at 50° C. before counting using a 1450 Microbeta TRILUX (Wallac).
# Data are means±SD for experiments performed in triplicate. IC50 values of antagonists were determined using non-linear regression analysis of concentration response curves using Activity Base.
# T1 sequence (Q99705 whole entry): as above
compound,measurement,setting,value
"CN1[C@@H]2CC[C@H]1C[C@@H](Oc1cccc(Cn3cnc4cc(-c5ccc(Cl)cc5)sc4c3=O)c1)C2 [Example 1, 6-(4-Chlorophenyl)-3-(3-{[(3-endo)-8-methyl-8-azabicyclo[3.2.1]oct-3-yl]oxy}benzyl)thieno[3,2-d]pyrimidin-4(3H)-one]",IC50,[1],26 nM
same,IC50,hERG,6500 nM
"CN1CCN(Cc2cccc(Cn3cnc4cc(-c5ccc(Cl)cc5)sc4c3=O)c2)CC1 [Example 5, 6-(4-Chlorophenyl)-3-{3-[(4-methylpiperazin-1-yl)methyl]benzyl}thieno[3,2-d]pyrimidin-4(3H)-one]",IC50,recombinant hMCHr1,42 nM
"CN1CCC(Oc2cccc(Cn3cnc4cc(-c5ccc(Cl)cc5)sc4c3=O)n2)CC1 [Example 11, 6-(4-Chlorophenyl)-3-({6-[(1-methylpiperidin-4-yl)oxy]pyridin-2-yl}methyl)thieno[3,2-d]pyrimidin-4(3H)-one]",melting point,,202 to 203 °C
